Reference: PubChem BioAssay AID330 (DTP/NCI, 2004)
“And” between values parts separate entries of the source, which are not always exact repeats. Identical values can stand only once. Toxic doses and inconclusive results are not listed. The calls were made as follows: active = survival T/C of 150% or more; inactive = T/C below 125% in these data.

Tested on: P388 leukemia ip, CD2F1 mice, survival T/C
Experiment: NCI In Vivo Anticancer Drug Screen. Data for tumor model P388 Leukemia (intraperitoneal) in CD2F1 (CDF1) mice
Conditions: endpoint: median survival time, higher = longer survival
Method in brief: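 Mice carrying the transplanted tumor received test compound or vehicle. Survival was recorded in each group, and the value is the treated-group measurement divided by that of the vehicle-treated control group.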

[1] = dose: 50.0 mg/kg/injection, schedule: Q01DX005 (ip), vehicle: Klucel (hydroxypropylcellulose) (HPC)
[2] = dose: 100.0 mg/kg/injection, schedule: Q01DX005 (ip), vehicle: Klucel (hydroxypropylcellulose) (HPC)
[3] = dose: 25.0 mg/kg/injection, schedule: Q04DX003 (ip), vehicle: Klucel (hydroxypropylcellulose) (HPC)
[4] = dose: 50.0 mg/kg/injection, schedule: Q01DX009 (ip), vehicle: saline with Tween-80
[5] = dose: 100.0 mg/kg/injection, schedule: Q01DX009 (ip), vehicle: saline with Tween-80
[6] = dose: 200.0 mg/kg/injection, schedule: Q01DX009 (ip), vehicle: saline with Tween-80
[7] = dose: 50.0 mg/kg/injection, schedule: Q01DX005 (ip), vehicle: saline with Tween-80
[8] = dose: 100.0 mg/kg/injection, schedule: Q01DX005 (ip), vehicle: saline with Tween-80
[9] = dose: 200.0 mg/kg/injection, schedule: Q01DX005 (ip), vehicle: saline with Tween-80

Measured: T/C

CCCCCC1=CC2C(=O)NC(=O)NC12 (centres undefined)
inactive: dose: 12.5 mg/kg/injection, schedule: Q01DX005 (ip), vehicle: Klucel (hydroxypropylcellulose) (HPC) 98 % of control | dose: 25.0 mg/kg/injection, schedule: Q01DX005 (ip), vehicle: Klucel (hydroxypropylcellulose) (HPC) 97 % of control | [1] 105 % of control | [2] 96 % of control

O=C1Nc2ccccc2C12Nc1ccccc1N2
inactive: [3] 108 % of control | dose: 50.0 mg/kg/injection, schedule: Q04DX003 (ip), vehicle: Klucel (hydroxypropylcellulose) (HPC) 95 % of control | dose: 100.0 mg/kg/injection, schedule: Q04DX003 (ip), vehicle: Klucel (hydroxypropylcellulose) (HPC) 97 % of control | dose: 200.0 mg/kg/injection, schedule: Q04DX003 (ip), vehicle: Klucel (hydroxypropylcellulose) (HPC) 90 % of control and 91 % of control

CCOP(=O)(O)C1CCCC(C)[N-]1.CCOP(=O)(O)C1CCCC(C)[N-]1.[Cu+2] (centres undefined)
inactive: dose: 12.5 mg/kg/injection, schedule: Q04DX003 (ip), vehicle: Klucel (hydroxypropylcellulose) (HPC) 101 % of control | [3] 112 % of control

COC(=O)C12CCCC1(C(=O)OC)N2N1C(=O)c2ccccc2C1=O (centres undefined)
inactive: [1] 100 % of control | [2] 100 % of control | dose: 200.0 mg/kg/injection, schedule: Q01DX005 (ip), vehicle: Klucel (hydroxypropylcellulose) (HPC) 105 % of control

CC1=NN(C(=O)c2ccncc2)C(=O)C1N=Nc1ccc(Cl)cc1 (centres undefined)
inactive: [4] 104 % of control | [5] 99 % of control | [6] 105 % of control

CC(C)c1nc(C=O)c(C=O)n1Cc1ccccc1
inactive: dose: 60.0 mg/kg/injection, schedule: Q01DX005 (ip), vehicle: saline with Tween-80 97 % of control | dose: 120.0 mg/kg/injection, schedule: Q01DX005 (ip), vehicle: saline with Tween-80 92 % of control | dose: 240.0 mg/kg/injection, schedule: Q01DX005 (ip), vehicle: saline with Tween-80 97 % of control

N#Cc1nnn(Cc2ccccc2)c1N
inactive: dose: 6.25 mg/kg/injection, schedule: Q01DX009 (ip), vehicle: saline with Tween-80 110 % of control | dose: 12.5 mg/kg/injection, schedule: Q01DX009 (ip), vehicle: saline with Tween-80 110 % of control | dose: 25.0 mg/kg/injection, schedule: Q01DX009 (ip), vehicle: saline with Tween-80 108 % of control | [4] 98 % of control and 86 % of control

COP(=O)(OC)C1(C(C)(C)C)CO1 (centres undefined)
inactive: dose: 50.0 mg/kg/injection, schedule: Q01DX009 (ip), vehicle: Klucel (hydroxypropylcellulose) (HPC) 99 % of control | dose: 100.0 mg/kg/injection, schedule: Q01DX009 (ip), vehicle: Klucel (hydroxypropylcellulose) (HPC) 88 % of control | dose: 200.0 mg/kg/injection, schedule: Q01DX009 (ip), vehicle: Klucel (hydroxypropylcellulose) (HPC) 94 % of control

CCC(CC)C(=O)NCC(=O)NO
inactive: dose: 25.0 mg/kg/injection, schedule: Q01DX005 (ip), vehicle: saline with Tween-80 100 % of control | [7] 103 % of control | [8] 100 % of control | [9] 95 % of control

CCC1C=Cc2ccccc2NC1 (centres undefined)
inactive: [7] 100 % of control | [8] 94 % of control | [9] 98 % of control

c1ccc2c(c1)ccc1cc3cccc[n+]3cc12
inactive: dose: 0.5 mg/kg/injection, schedule: Q01DX009 (ip), vehicle: saline 92 % of control | dose: 1.0 mg/kg/injection, schedule: Q01DX009 (ip), vehicle: saline 103 % of control | dose: 2.0 mg/kg/injection, schedule: Q01DX009 (ip), vehicle: saline 92 % of control

CCc1c(-c2ccccc2)nc(N)nc1-c1nc(N)nc(-c2ccccc2)c1CC
inactive: dose: 60.0 mg/kg/injection, schedule: Q01DX005 (ip), vehicle: saline 98 % of control | dose: 120.0 mg/kg/injection, schedule: Q01DX005 (ip), vehicle: saline 100 % of control

OCC1SC(O)C(O)C(O)C1O (centres undefined)
inactive: dose: 120.0 mg/kg/injection, schedule: Q##DX005 (ip), vehicle: saline 97 % of control | dose: 240.0 mg/kg/injection, schedule: Q##DX005 (ip), vehicle: saline 92 % of control | dose: 600.0 mg/kg/injection, schedule: Q01DX001 (ip), vehicle: saline 102 % of control and 104 % of control | dose: 1200.0 mg/kg/injection, schedule: Q01DX001 (ip), vehicle: saline 100 % of control and 104 % of control

O=c1c(O)c(-c2cc(O)c(O)c(O)c2)oc2cc(O)cc(O)c12
inactive: dose: 6.25 mg/kg/injection, schedule: Q01DX009 (ip), vehicle: Klucel (hydroxypropylcellulose) (HPC) 105 % of control | dose: 12.5 mg/kg/injection, schedule: Q01DX009 (ip), vehicle: Klucel (hydroxypropylcellulose) (HPC) 112 % of control | dose: 25.0 mg/kg/injection, schedule: Q01DX009 (ip), vehicle: Klucel (hydroxypropylcellulose) (HPC) 124 % of control | dose: 100.0 mg/kg/injection, schedule: Q01DX009 (ip), vehicle: other 89 % of control | dose: 200.0 mg/kg/injection, schedule: Q01DX009 (ip), vehicle: other 98 % of control

O=C(NN=C1c2ccccc2-c2ccccc21)C(F)(F)F
inactive: dose: 50.0 mg/kg/injection, schedule: Q01DX005 (ip), vehicle: Klucel + Tween-80 100 % of control | dose: 100.0 mg/kg/injection, schedule: Q01DX005 (ip), vehicle: Klucel + Tween-80 100 % of control | dose: 200.0 mg/kg/injection, schedule: Q01DX005 (ip), vehicle: Klucel + Tween-80 100 % of control

CC(C)OC(=S)SCC(=O)c1ccc(C(F)(F)F)cc1
inactive: [4] 105 % of control | [5] 104 % of control | [6] 98 % of control | dose: 400.0 mg/kg/injection, schedule: Q01DX009 (ip), vehicle: saline with Tween-80 100 % of control

Clc1ccc2nc(C(Cl)(Cl)Cl)nc(NCCN3CCCCC3)c2c1
inactive: [4] 100 % of control | [5] 100 % of control | [6] 90 % of control

CCC1=NC(C)(C)CO1
inactive: dose: 50.0 mg/kg/injection, schedule: Q01DX009 (ip), vehicle: saline 104 % of control | dose: 100.0 mg/kg/injection, schedule: Q01DX009 (ip), vehicle: saline 97 % of control | dose: 200.0 mg/kg/injection, schedule: Q01DX009 (ip), vehicle: saline 97 % of control

COc1ccc2c(c1)[nH]c1c(/C=C/c3ccc([N+](=O)[O-])cc3)nccc12
inactive: dose: 30.0 mg/kg/injection, schedule: Q01DX005 (ip), vehicle: Klucel (hydroxypropylcellulose) (HPC) 107 % of control | dose: 60.0 mg/kg/injection, schedule: Q01DX005 (ip), vehicle: Klucel (hydroxypropylcellulose) (HPC) 103 % of control | dose: 120.0 mg/kg/injection, schedule: Q01DX005 (ip), vehicle: Klucel (hydroxypropylcellulose) (HPC) 105 % of control | dose: 240.0 mg/kg/injection, schedule: Q01DX005 (ip), vehicle: Klucel (hydroxypropylcellulose) (HPC) 90 % of control

NCCCCC(C(=O)NC(Cc1ccc(O)cc1)C(=O)NC(CO)C(=O)OCc1ccc([N+](=O)[O-])cc1)N(C(=O)OCc1ccccc1)C(=O)OCc1ccccc1 (centres undefined)
inactive: [7] 101 % of control | [8] 100 % of control | [9] 97 % of control

CC(=O)OC1C=CC2OC2(COC(=O)c2ccccc2)C1OC(C)=O (centres undefined)
inactive: dose: 2.5 mg/kg/injection, schedule: Q01DX009 (ip), vehicle: Klucel (hydroxypropylcellulose) (HPC) 87 % of control | dose: 5.0 mg/kg/injection, schedule: Q01DX009 (ip), vehicle: Klucel (hydroxypropylcellulose) (HPC) 99 % of control | dose: 10.0 mg/kg/injection, schedule: Q01DX009 (ip), vehicle: Klucel (hydroxypropylcellulose) (HPC) 92 % of control | dose: 28.75 mg/kg/injection, schedule: Q01DX005 (ip), vehicle: saline + Tween-80 + alcohol 100 % of control | dose: 57.5 mg/kg/injection, schedule: Q01DX005 (ip), vehicle: saline + Tween-80 + alcohol 102 % of control | dose: 115.0 mg/kg/injection, schedule: Q01DX005 (ip), vehicle: saline + Tween-80 + alcohol 100 % of control | dose: 230.0 mg/kg/injection, schedule: Q01DX005 (ip), vehicle: saline + Tween-80 + alcohol 100 % of control
